Series [1] in a line: Maximum soluble amount in cosmetic liquid of prescription example 1 (HPLC). In kind it is physicochemical. The settings on record: 1.0% added to prescription example 1, insolubles filtered off (1-μm filter paper). How it is done: Specifically, ubiquinone or ubiquinol was added in an amount corresponding to 1.0%. The resultant suspension was filtered through 1-μm filter paper, and thereby insolubles were removed. The cosmetic liquids B and C were thus prepared.
The final concentrations of ubiquinone and ubiquinol in the cosmetic liquids B and C were measured by HPLC similarly to Example 1, resulting in 0.011% and 0.023%, respectively.

Series [2] concerns Normal human skin fibroblast cells NB1RGB. The settings on record: 3 days, 0.007 %.
Method: Normal human skin fibroblast cells NB1RGB (spared from RIKEN) were inoculated to a DMEM culture medium including 10% FBS on a 9 cm Petri dish such that the normal human skin fibroblast cells NB1RGB were approximately 1.0×10^5 in number per ml. The cells were cultured in a CO2 incubator at 37° C. for 7 days to reach confluent while the culture medium was exchanged every 3 days. […] After the culture, the cells were cleaned three times on the Petri dish each with 10 ml of PBS(−), and were released and recovered using trypsin/EDTA. The cells were then resuspended in 1 ml of PBS(−), and were quickly broken with a homogenizer. Insoluble matters were removed by centrifugal separation at 10000 rpm for 10 minutes, and 10 μl of the supernatant was subjected to HPLC. The remainder was combined with an equivalent amount of hexane, and these were sufficiently mixed together to give a turbid liquid. The turbid liquid was subjected to centrifugal separation at 10000 rpm for 3 minutes, and the resultant supernatant hexane layer was analyzed by HPLC.
Column: Shodex F-511A (manufactured by Showa Denko K.K)
Column temperature: 40° C.
Eluent: methanol/water/phosphoric acid=1000/5/1
Detection: photodiode array 210 nm-370 nm
In the HPLC analysis, ubiquinone used in Synthetic Example 1 and ubiquinol immediately after synthesized in Synthetic Example 1 were used as references. […]
Series [3] in a line: Maximum ubiquinone concentration in DMEM culture medium including 10% FBS (HPLC). The series is classed as physicochemical. The settings on record: DMEM with 10% FBS, 0.03% added, stirred 6 hours at room temperature, filtered.
Method: To a DMEM culture medium including 10% FBS, reagent ubiquinone was added in an amount corresponding to 0.03%. The mixture was stirred with a stirrer at room temperature for 6 hours. The mixture was filtered through a 0.02 µm filter, and a ubiquinone-containing culture medium was prepared.
Series [4] can be described thus: Water solubility at normal temperature. The series is classed as physicochemical.
Series [5] is described as follows: Test of radical scavenging ability (H2-DCFDA fluorescence, AAPH). The series is classed as biochemical. The settings on record: final concentration 0.006%, 30 minutes after AAPH addition, 37° C. The protocol:
The resultant solution was added to a 10 mM aqueous sodium hydroxide solution such that the concentration of the agent was 1 mM. The radical fluorescence detecting agent was hydrolyzed in the dark at room temperature for 60 minutes and was activated. The liquid was diluted with Dulbecco's phosphate buffered saline (PBS) to give a diluted liquid with a final concentration of 0.01 mM. […]-40 manufactured by Nihon Emulsion Co., Ltd.). […] The mixture thus prepared was used as a test liquid. A test liquid having a final ubiquinone concentration of 0.006% was prepared in the same manner using ubiquinone. A test liquid was prepared as described above except that the ubiquinone solution was replaced by the same volume of distilled water. This test liquid was used as a negative control. […] The mixture was heated to 37° C. After 30 minutes after the addition, the fluorescence intensity at an excitation wavelength of 495 nm and a fluorescence wavelength of 525 nm of the respective liquids was measured. The fluorescence suppression was obtained as radical scavenging ability of ubiquinone and potassium ubiquinol-1,4-diphosphate.

Regarding `COc1c(O)c(C)c(C/C=C(\C)CC/C=C(\C)CC/C=C(\C)CC/C=C(\C)CC/C=C(\C)CC/C=C(\C)CC/C=C(\C)CC/C=C(\C)CC/C=C(\C)CCC=C(C)C)c(O)c1OC` [ubiquinol], in series [1], the “final concentration in the cosmetic liquid (maximum soluble amount)” value turned out to be 0.023%.
As to `COC1=C(OC)C(=O)C(C/C=C(\C)CC/C=C(\C)CC/C=C(\C)CC/C=C(\C)CC/C=C(\C)CC/C=C(\C)CC/C=C(\C)CC/C=C(\C)CC/C=C(\C)CCC=C(C)C)=C(C)C1=O` [ubiquinone, 2,3-dimethoxy-5-methyl-6-polyprenyl-1,4-benzoquinone], the “final concentration in the cosmetic liquid (maximum soluble amount)” value in series [1] worked out at 0.011%. Moreover, the “Concentration in cells after culture: Ubiquinone” value in series [2] worked out at 2000 ng/mL. Also, the “ubiquinone concentration in the culture medium (probably the maximum)” value in series [3] came out at 0.007%. In addition, the water solubility entry in series [4] was “less than 100 ppm”. In addition, in series [5], the “Fluorescence intensity (Ex 495/Em 525 nm: relative value)” value came to 13315 relative value and the “Radical scavenging ability (Fluorescence suppression (%))” value is on record as 41%.
As to “tetrapotassium ubiquinol-1,4-diphosphate”, in series [5], the “Fluorescence intensity (Ex 495/Em 525 nm: relative value)” value turned out to be 5001 relative value and the “Radical scavenging ability (Fluorescence suppression (%))” value is given as 78%.
